Assay results reported in patent US20080044436A1, “Method for Screening and Compositions for Treating Cancers” (priority 2004, published 2008).

Molecular target: T1, PR (Homo sapiens, UniProt P06401)
T1 construct: made in house; host or cells: PR-B: rabbit reticulocyte lysate / T7 RNA polymerase in vitro translation (Promega)
T1 sequence (P06401 1-933): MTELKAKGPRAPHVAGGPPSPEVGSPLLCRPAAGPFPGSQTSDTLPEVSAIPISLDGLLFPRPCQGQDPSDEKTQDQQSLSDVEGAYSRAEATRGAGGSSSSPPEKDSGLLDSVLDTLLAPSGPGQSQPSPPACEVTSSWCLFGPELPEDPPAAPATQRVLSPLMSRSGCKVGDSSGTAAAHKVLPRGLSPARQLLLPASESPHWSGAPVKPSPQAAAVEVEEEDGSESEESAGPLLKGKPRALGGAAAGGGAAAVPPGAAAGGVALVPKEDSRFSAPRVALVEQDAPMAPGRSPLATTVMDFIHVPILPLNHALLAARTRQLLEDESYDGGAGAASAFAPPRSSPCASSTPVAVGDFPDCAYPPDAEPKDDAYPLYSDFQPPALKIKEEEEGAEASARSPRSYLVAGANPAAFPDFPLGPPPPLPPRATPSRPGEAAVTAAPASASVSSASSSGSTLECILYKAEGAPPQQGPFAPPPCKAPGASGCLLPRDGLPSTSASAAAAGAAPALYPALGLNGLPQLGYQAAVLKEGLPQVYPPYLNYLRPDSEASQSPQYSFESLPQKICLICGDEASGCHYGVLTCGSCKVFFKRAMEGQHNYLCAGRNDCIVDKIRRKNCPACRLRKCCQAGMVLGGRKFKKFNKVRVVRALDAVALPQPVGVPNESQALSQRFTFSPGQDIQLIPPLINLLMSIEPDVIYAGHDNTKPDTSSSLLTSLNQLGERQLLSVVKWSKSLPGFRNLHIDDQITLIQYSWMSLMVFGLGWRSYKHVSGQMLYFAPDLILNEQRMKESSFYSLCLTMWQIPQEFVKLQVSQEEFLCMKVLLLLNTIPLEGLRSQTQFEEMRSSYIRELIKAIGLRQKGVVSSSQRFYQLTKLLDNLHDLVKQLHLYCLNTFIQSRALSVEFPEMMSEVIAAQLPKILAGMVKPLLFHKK
T1 sequence (Q96PN7 1-1200 partner): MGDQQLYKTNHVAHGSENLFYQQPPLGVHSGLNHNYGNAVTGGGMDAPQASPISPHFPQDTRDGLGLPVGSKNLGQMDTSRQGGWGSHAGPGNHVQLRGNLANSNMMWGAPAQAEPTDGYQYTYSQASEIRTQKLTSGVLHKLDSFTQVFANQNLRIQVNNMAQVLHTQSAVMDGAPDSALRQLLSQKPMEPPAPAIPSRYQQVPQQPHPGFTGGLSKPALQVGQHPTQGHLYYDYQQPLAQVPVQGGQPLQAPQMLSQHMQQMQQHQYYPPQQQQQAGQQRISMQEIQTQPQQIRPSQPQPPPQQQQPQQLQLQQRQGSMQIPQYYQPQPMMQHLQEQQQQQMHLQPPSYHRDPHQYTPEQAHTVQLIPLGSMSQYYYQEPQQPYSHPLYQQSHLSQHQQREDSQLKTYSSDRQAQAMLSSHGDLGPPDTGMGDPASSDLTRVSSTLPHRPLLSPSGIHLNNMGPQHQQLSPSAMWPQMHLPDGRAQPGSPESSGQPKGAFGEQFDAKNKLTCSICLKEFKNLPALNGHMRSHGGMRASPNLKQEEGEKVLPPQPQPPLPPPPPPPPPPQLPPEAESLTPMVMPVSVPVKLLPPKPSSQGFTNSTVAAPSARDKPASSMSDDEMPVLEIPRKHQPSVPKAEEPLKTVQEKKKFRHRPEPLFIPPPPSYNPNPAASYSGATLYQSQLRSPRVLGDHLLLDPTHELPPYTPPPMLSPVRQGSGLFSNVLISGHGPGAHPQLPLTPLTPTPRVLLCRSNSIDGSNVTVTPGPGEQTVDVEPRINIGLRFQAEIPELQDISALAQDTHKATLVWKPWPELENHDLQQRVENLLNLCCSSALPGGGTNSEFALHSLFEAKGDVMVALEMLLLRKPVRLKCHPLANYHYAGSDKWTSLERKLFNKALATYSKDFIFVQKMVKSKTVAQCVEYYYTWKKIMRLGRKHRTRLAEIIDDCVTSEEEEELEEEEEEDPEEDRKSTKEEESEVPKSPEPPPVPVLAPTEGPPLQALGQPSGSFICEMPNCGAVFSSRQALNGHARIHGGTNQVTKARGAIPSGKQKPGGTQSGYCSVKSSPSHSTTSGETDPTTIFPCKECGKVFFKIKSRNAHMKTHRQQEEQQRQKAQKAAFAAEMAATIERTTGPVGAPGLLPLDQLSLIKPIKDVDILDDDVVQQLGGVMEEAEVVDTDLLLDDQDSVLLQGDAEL
Experiment: GST pull-down, TReP-132 and PR
Assay type: binding
Protocol: FIG. 14D left: GST-TReP-132 immobilized on glutathione-Sepharose was incubated with ^35-[S]-methionine-labelled PR, in the absence or with increasing concentrations of progesterone (0-10 μM). Specific interactions were analyzed by comparison with the results obtained by incubating GST with ^35-[S]-PR, in the presence of 100 μM progesterone (GST).
FIG. 14D right: GST-TReP-132 wt, GST-TReP-132 ml (mutated at the LRQLL site) and GST-TReP-132 m2 (mutated at the LEMLL site) were analyzed for interaction with ^35-[S]-PR as described earlier, in the presence of 10 μM progesterone. Input PR: 1/10th of the radiolabelled PR level used in the experiments.
In order to evaluate the interaction of TReP-132, Sp1, ER and PR, the wt and mutant GST-TReP-132 fusion proteins were expressed, then immobilized on glutathione-Sepharose as described (Frangioni and Neel, 1993; Monte et al., 1998). The ^35S-[Sp1], ^35S-[ER] and ^35S-[PR-B] proteins were synthesized in vitro using a rabbit reticulocyte lysate and T7 RNA polymerase system as directed by the manufacturer (Promega Corporation, Madison, Wis.). Proteins which bound, then detached from the Sepharose after being heated to boiling in SDS buffer were then separated on a 10% SDS-PAGE gel. The gels were stained with Coomassie blue, dried and autoradiographed.

## CC(=O)[C@H]1CC[C@H]2[C@@H]3CCC4=CC(=O)CC[C@]4(C)[C@H]3CC[C@]12C [progesterone, reference compound]
GST-TReP-132 and 35S-PR, progesterone 0-10 μM
  TReP-132/PR interaction in presence of progesterone: increased in a dose-dependent manner

B1: TReP-132: Transcriptional Regulating Protein of 132 kDa, polypeptide comprising SEQ ID NO: 2; here expressed in cells from vectors (protein)
chain: T1 sequence (Q96PN7 1-1200 partner)
GST pull-down with 35S-PR
  interaction with PR: interact
